Assay results from PMC3792051, “Polyenylpyrrole Derivatives Inhibit NLRP3 Inflammasome Activation and Inflammatory Mediator Expression by Reducing Reactive Oxygen Species Production and Mitogen-Activated Protein Kinase Activation” (PLoS ONE, 2013).

Legend:
[1] = test system: LPS-activated primary peritoneal macrophages; assay: IL-6 and TNF-α secretion by ELISA; type: cell-based, C57BL/6 mice; conditions: 10-40 µM, LPS 1 µg/ml 24 h
Description: The effects of the test samples on IL-1β, TNF-α, and IL-6 production were measured by ELISA according to the manufacturer’s instructions. In brief, 50 µl of biotinylated antibody reagent and 50 µl of supernatant were added to a stripwell plate precoated with anti-mouse IL-1β, TNF-α, or IL-6 antibodies, which was then incubated at room temperature for 2 h. After washing the plate three times with washing buffer, 100 µl of diluted streptavidin-HRP concentrate was added to each well and the plate incubated at room temperature for 30 min. […] After addition of 100 µl of stop solution to each well, the absorbance at 450 nm of each well was measured on a microplate reader.
Figure 3 Effect of compound 1h on LPS-induced secretion of IL-6 and TNF-α by J774A.1 macrophages, peritoneal macrophages, and JAWSII dendritic cells. (A) J774A.1 macrophages, (B) peritoneal macrophages, or (C) JAWSII dendritic cells (all 4 × 10^5/ml; 1 ml) were incubated for 30 min with 10-40 µM compound 1h or DMSO, then LPS (1 µg/ml) was added and incubation continued for 24 h, then IL-6 levels (left panels) and TNF-α levels (right panels) in the culture medium were measured by ELISA. The data are expressed as the mean ± SD for three separate experiments. *, **, and *** indicate a significant difference at the level of p < 0.05, p < 0.01, or p < 0.001, respectively, compared to the DMSO/LPS group.

[2] = test system: NLRP3 inflammasome in LPS+ATP-activated J774A.1 macrophages; assay: NLRP3 inflammasome activation (IL-1β ELISA, caspase-1 p10 Western blot); type: cell-based, mouse; conditions: then ATP 5 mM 30 min
Description: (§1) The effects of the test samples on IL-1β, TNF-α, and IL-6 production were measured by ELISA according to the manufacturer’s instructions. In brief, 50 µl of biotinylated antibody reagent and 50 µl of supernatant were added to a stripwell plate precoated with anti-mouse IL-1β, TNF-α, or IL-6 antibodies, which was then incubated at room temperature for 2 h. After washing the plate three times with washing buffer, 100 µl of diluted streptavidin-HRP concentrate was added to each well and the plate incubated at room temperature for 30 min. The washing process was repeated, then 100 µl of a premixed tetramethylbenzidine substrate solution was added to each well and the plate incubated at room temperature in the dark for 30 min. After addition of 100 µl of stop solution to each well, the absorbance at 450 nm of each well was measured on a microplate reader.
Cells were washed twice with ice-cold phosphate-buffered saline (PBS) and lysed on ice for 5 min with lysis buffer (20 mM Tris-HCl, pH 7.5, 150 mM NaCl, 1 mM Na 2EDTA, 1 mM EGTA, 1% Triton X-100, 2.5 mM sodium pyrophosphate, 1 mM beta-glycerophosphate, 1 mM Na 3VO4, 1 µg/ml of leupeptin, 1 mM PMSF, protease inhibitor cocktail). The lysate was then centrifuged at 12,000 x g at 4 °C for 10 min and the pellet discarded. Proteins in the supernatant were separated by SDS-PAGE and electrotransferred to a PVDF membrane (EMD Millipore Corporation), which was then blocked by incubation for 1 h at room temperature in blocking buffer [(5% nonfat milk in PBS containing 0.1% Tween 20 (PBST)], then incubated for 2 h at room temperature with the primary antibody diluted in blocking buffer. After three washes in PBST, the membrane was incubated for 1 h at room temperature with an appropriate HRP-conjugated secondary antibody diluted in blocking buffer and developed using an enhanced chemiluminescence Western blot detection system (EMD Millipore Corporation).
ATP is known to activate the NLRP3 inflammasome in LPS-primed macrophages, leading to caspase-1 activation and IL-1β secretion. To examine whether compound 1h could affect NLRP3 inflammasome activation, the mouse macrophage cell line J774A.1 was used (RAW 264.7 macrophages are not suitable for studying the NLRP3 inflammasome). […]
Figure 4 Effect of compound 1h on NLRP3 inflammasome activation in LPS+ATP-activated J774A.1 macrophages. (A) J774A.1 macrophages (1 × 10^6/ml; 1 ml) or (B) peritoneal macrophages (1 × 10^5/ml; 1 ml) were incubated with 10-40 µM compound 1h or DMSO for 30 min, then LPS (1 µg/ml) was added and incubation continued for 5.5 h, then the cells were stimulated with ATP (5 mM) for an additional 30 min, then IL-1β in the culture medium was measured by ELISA (A, upper panel; B) and levels of active caspase-1 (p10) (A, lower panel) measured by Western blotting. In (C) and (D), J774A.1 macrophages (1 × 10^6/ml; 1ml) were incubated with LPS (1 µg/ml) for 5.5 h, then with 10-40 µM compound 1h or DMSO for 30 min in the continued presence of LPS, followed by stimulation with ATP (5 mM) for an additional 30 min, then IL-1β levels (C, upper panel) and IL-6 levels (D) in the culture medium were measured by ELISA and levels of active caspase-1 (p10) were measured by Western blotting (C, lower panel). […] In (E), J774A.1 macrophages (1 × 10^6/ml; 1 ml) were incubated for 30 min with DMSO or 1-40 µM compound 1h, then LPS (1 µg/ml) was added and incubation continued for 6 h, then expression of NLRP3 and proIL-1β was measured by Western blotting. […]

[3] = test system: LPS-activated RAW 264.7 macrophages; assay: IL-6 and TNF-α secretion by ELISA; type: cell-based, murine
Description: as §1
To investigate the inhibitory effect of compounds 1h, 1i, and 1n on the LPS-induced inflammatory response, NO levels in the supernatants of RAW 264.7 macrophages incubated with DMSO (vehicle) or compound 1h, 1i, or 1n for 30 min before, and during, incubation for 24 h with LPS (1 µg/ml) were measured by the Griess reaction. […] We next investigated their effect on the expression of iNOS, the NO producing enzyme, using Western blots.
Figure 2 Effect of polyenylpyrrole derivatives on the expression of inflammatory mediators in LPS-stimulated RAW 264.7 macrophages. In (A) and (C), the cells (5 × 10^5/ml; 1 ml) were incubated for 30 min with 2.5-40 µM compound 1h, 1i, or 1n or DMSO (vehicle), then LPS (1 µg/ml) was added and incubation continued for 24 h, then NO (A) or IL-6 or TNF-α (C) in the culture medium was assayed by the Griess reaction or ELISA, respectively. In (B), cells (5 × 10^5/ml; 1 ml) were pretreated for 30 min with 2.5-40 µM compound 1h or DMSO, then LPS (1 µg/ml) was added and incubation continued for 24 h, then expression of iNOS and COX-2 was measured by Western blotting. The fold increase is the intensity of the band of interest divided by that of the actin band normalized to the corresponding value for the 0 LPS/0 inhibitor control.

[4] = J774A.1, LPS 5.5 h first, then compound 10-40 µM 30 min
[5] = J774A.1, compound 10-40 µM 30 min before LPS 5.5 h
[6] = RAW 264.7, 2.5-40 µM, LPS 1 µg/ml 24 h

O=c1cc(O)cc(/C=C/C=C/C=C/C=C/c2[nH]ccc2Cl)o1 [compound 1h]
LPS-induced IL-6 secretion [1]: reduced secretion of IL-6 and TNF-α
LPS-induced TNF-α secretion [1]: reduced secretion of IL-6 and TNF-α
Caspase-1 activation (p10) [2, 4]: not caspase-1 activation
IL-1β secretion [2, 4]: inhibited the LPS-induced increase in IL-1β secretion
IL-6 secretion [2, 4]: had no significant effect on IL-6 secretion
Generation of active caspase-1 (p10) [2, 5]: significantly inhibited
IL-1β secretion [2, 5]: significantly inhibited IL-1β secretion
IL-6 production by LPS-activated cells [3, 6]: significantly decreased IL-6 production by LPS-activated cells in a dose-dependent manner
TNF-α secretion by LPS-activated cells [3, 6]: only slightly and non-significantly reduced
Background levels of IL-6 and TNF-α in non-stimulated macrophages ([3]; RAW 264.7, no LPS (data not shown)): none of the three compounds altered background levels of IL-6 and TNF-α
